From PMC10265666, “Lung SPLUNC1 Peptide Derivatives in the Lipid Membrane Headgroup Kill Gram-Negative Planktonic and Biofilm Bacteria” (Biomacromolecules, 2023)
Values joined by “and” are separate entries in the source; they are usually repeats but may differ in a detail not shown here. Identical values can stand only once.

Columns and labels:
[1] = tested on: Klebsiella pneumoniae, 24 clinical isolates and 1 lab strain; format: cell-based; conditions: average over 25 K. pneumoniae substrains; 37 °C, 16 h, OD 570 nm; growth at 32 μM counted as 64 μM
Description: Minimum inhibitory concentration (MIC, defined as the minimum AMP concentration to prevent bacterial growth) and biofilm data were obtained by UV–vis spectroscopy using a BioTek Epoch 2 microplate reader.
K. pneumoniae substrains were grown overnight using 50 mL plastic conical tubes on a shaker platform at 37 °C. The following day, serial dilutions of the four SPLUNC1 peptides and LL-37 were tested against these 25 substrains of K. pneumoniae using a 96-well plate. […] Following the addition of the peptides at the tested concentrations from serial dilutions to the K. pneumoniae substrains, the plates were incubated at 37 °C for 16 h. Then, visible spectroscopy at λ = 570 nm was performed to determine the bacterial absorption in each well. Those wells with an optical density reading above a threshold value were deemed resistant to the peptide, while those that were below the threshold value were deemed sensitive to the peptide. The threshold value was determined using Gen5 software with the Di lab Growth Inhibition Assay protocol.
Average MICs and standard deviations were calculated by first averaging the absorbances as a function of AMP concentration in all of the bacterial strains from four total data sets. Then, the average MICs were determined from the averaged absorbances. The standard deviations of the MICs were calculated from each of the absorbances that were used to calculate the average. Then, the standard deviations were averaged across substrains for the graph. These procedures were used to obtain an average MIC with standard deviation across all 25 substrains for one peptide, in order to compare peptide efficacy. Typically, many more substrains are used to obtain an average MIC, so this average MIC may change if thousands of substrains are compared.

[2] = Circular dichroism secondary structure in Euk33 ULVs; format: physicochemical; conditions: 10 μM peptide, 15 mM PBS pH 7, 37 °C

CC[C@H](C)[C@H](NC(=O)[C@@H](NC(=O)[C@H](CO)NC(=O)[C@H](CCCCN)NC(=O)[C@@H](NC(=O)[C@H](CCCCN)NC(=O)CNC(=O)[C@H](Cc1c[nH]c2ccccc12)NC(=O)[C@@H](NC(=O)CNC(=O)CNC(=O)[C@@H](NC(=O)[C@H](Cc1c[nH]c2ccccc12)NC(=O)CNC(=O)[C@H](CCCCN)NC(=O)[C@@H](NC(=O)[C@H](CCCCN)NC(=O)[C@H](CCCCN)NC(=O)[C@H](Cc1ccccc1)NC(=O)[C@H](Cc1ccccc1)NC(=O)[C@H](CCCCN)NC(=O)[C@H](CCCCN)NC(=O)[C@@H](N)CC(C)C)C(C)C)C(C)C)C(C)C)C(C)C)C(C)C)C(=O)N[C@@H](CCCCN)C(=O)O (stereo in doubt) [A4-153]
average MIC value [1]: 18 µM
Random ([2]; Euk33/peptide molar ratio 0:1): 57.7%
α-helix ([2]; Euk33/peptide molar ratio 0:1): 6.4%
β-sheet ([2]; Euk33/peptide molar ratio 0:1): 34.2%
β-turn ([2]; Euk33/peptide molar ratio 0:1): 1.7%
Random ([2]; Euk33/peptide molar ratio 5:1): 66.2%
α-helix ([2]; Euk33/peptide molar ratio 5:1): 9.7%
β-sheet ([2]; Euk33/peptide molar ratio 5:1): 24.1%
β-turn ([2]; Euk33/peptide molar ratio 5:1): 0%
Random ([2]; Euk33/peptide molar ratio 10:1): 64.2%
α-helix ([2]; Euk33/peptide molar ratio 10:1): 12.2%
β-sheet ([2]; Euk33/peptide molar ratio 10:1): 23.6%
β-turn ([2]; Euk33/peptide molar ratio 10:1): 0%
Random ([2]; Euk33/peptide molar ratio 20:1): 60.4%
α-helix ([2]; Euk33/peptide molar ratio 20:1): 14.1%
β-sheet ([2]; Euk33/peptide molar ratio 20:1): 25.5%
β-turn ([2]; Euk33/peptide molar ratio 20:1): 0%
Random ([2]; Euk33/peptide molar ratio 30:1): 57.5%
α-helix ([2]; Euk33/peptide molar ratio 30:1): 16.2% and 16%
β-sheet ([2]; Euk33/peptide molar ratio 30:1): 26.3%
β-turn ([2]; Euk33/peptide molar ratio 30:1): 0%
Random ([2]; Euk33/peptide molar ratio 70:1): 51.3%
α-helix ([2]; Euk33/peptide molar ratio 70:1): 20.5%
β-sheet ([2]; Euk33/peptide molar ratio 70:1): 28.2%
β-turn ([2]; Euk33/peptide molar ratio 70:1): 0%
